Measured values published in ChEMBL document CHEMBL1140104, “Chlorogenic acid derivatives with alkyl chains of different lengths and orientations: potent alpha-glucosidase inhibitors” (J Med Chem, 2008).
Counter-ions that a name gives are not always drawn.

What was measured:
[1] = Inhibition of Saccharomyces cerevisiae alpha-glucosidase
[2] = Inhibition of Bacillus stearothermophilus alpha-glucosidase; design: species or system Geobacillus stearothermophilus
[3] = Stability in artificial gastric juice at 10 mM after 48 hrs; type: physicochemical; settings: simulated gi fluid, 10000 µM
[4] = Stability in artificial intestinal juice at 10 mM after 12 hrs; type: physicochemical; settings: simulated gi fluid, 10000 µM

| SMILES | IC50 [1] | IC50 [2] | Stability [3] | Stability [4] |
| --- | --- | --- | --- | --- |
| CCCC1(CCC)O[C@H]2[C@H](OC(=O)/C=C/c3ccc(O)c(O)c3)C[C@]3(C[C@H]2O1)OC(CCC)(CCC)OC3=O | 3.3 µM | 5.5 µM | – | – |
| CCCC1(CCC)OC(=O)[C@@]2(C[C@@H](O)[C@@H](O)[C@H](OC(=O)/C=C/c3ccc(O)c(O)c3)C2)O1 | 19.4 µM | 62.2 µM | – | – |
| CCCCCCCC[C@@H]1OC(=O)[C@]2(C[C@@H](OC(=O)/C=C/c3ccc(O)c(O)c3)[C@@H]3O[C@H](CCCCCCCC)O[C@@H]3C2)O1 | 1 µM | 2 µM | – | – |
| CCCCCCCCC1(CCCCCCCC)O[C@H]2[C@H](OC(=O)/C=C/c3ccc(O)c(O)c3)C[C@]3(C[C@H]2O1)OC(CCCCCCCC)(CCCCCCCC)OC3=O | 0.5 µM | 0.9 µM | – | – |
| CCCCCC1(CCCCC)OC(=O)[C@@]2(C[C@@H](O)[C@@H](O)[C@H](OC(=O)/C=C/c3ccc(O)c(O)c3)C2)O1 | 3.6 µM | 14.2 µM | – | – |
| CCCCCCC1(CCCCCC)OC(=O)[C@@]2(C[C@@H](O)[C@@H](O)[C@H](OC(=O)/C=C/c3ccc(O)c(O)c3)C2)O1 | 3.4 µM | 3.9 µM | – | – |
| CCCCCCCC[C@@H]1O[C@H]2[C@H](OC(=O)/C=C/c3ccc(O)c(O)c3)C[C@]3(C[C@H]2O1)O[C@@H](CCCCCCCC)OC3=O | 0.3 µM | 0.7 µM | Stable | Stable |
| O=C(/C=C/c1ccc(O)c(O)c1)O[C@@H]1C[C@](O)(C(=O)O)C[C@@H](O)[C@H]1O [CHLOROGENIC ACID] | > 2820 µM | 2820 µM | – | – |
| CC1(C)O[C@H]2[C@H](OC(=O)/C=C/c3ccc(O)c(O)c3)C[C@]3(C[C@H]2O1)OC(C)(C)OC3=O | 391 µM | 154 µM | – | – |
| CCCCCC1(CCCCC)O[C@H]2[C@H](OC(=O)/C=C/c3ccc(O)c(O)c3)C[C@]3(C[C@H]2O1)OC(CCCCC)(CCCCC)OC3=O | 0.8 µM | 1.1 µM | – | – |
| CCCCCCCC1(CCCCCCC)OC(=O)[C@@]2(C[C@@H](O)[C@@H](O)[C@H](OC(=O)/C=C/c3ccc(O)c(O)c3)C2)O1 | 4.3 µM | 3.6 µM | – | – |
| C[C@H]1O[C@H](O[C@H]2[C@H](O)[C@@H](O)[C@@H](O[C@H]3[C@H](O)[C@@H](O)C(O)O[C@@H]3CO)O[C@@H]2CO)[C@H](O)[C@@H](O)[C@@H]1N[C@H]1C=C(CO)[C@@H](O)[C@H](O)[C@H]1O (some centres undefined) [ACARBOSE] | 0.1 µM | 0.1 µM | – | – |
| CCCCCCCC[C@@H]1OC(=O)[C@@]2(C[C@@H](O)[C@@H](O)[C@H](OC(=O)/C=C/c3ccc(O)c(O)c3)C2)O1 | 3.3 µM | 10.9 µM | – | – |
| CC1(C)OC(=O)[C@@]2(C[C@@H](O)[C@@H](O)[C@H](OC(=O)/C=C/c3ccc(O)c(O)c3)C2)O1 | 114 µM | 2540 µM | – | – |
| CCCCCCCC[C@H]1OC(=O)[C@@]2(C[C@@H](O)[C@@H](O)[C@H](OC(=O)/C=C/c3ccc(O)c(O)c3)C2)O1 | 3.6 µM | 12.5 µM | – | – |
| CCCCC1(CCCC)O[C@H]2[C@H](OC(=O)/C=C/c3ccc(O)c(O)c3)C[C@]3(C[C@H]2O1)OC(CCCC)(CCCC)OC3=O | 0.3 µM | 0.8 µM | – | – |
| CCCCCCC1(CCCCCC)O[C@H]2[C@H](OC(=O)/C=C/c3ccc(O)c(O)c3)C[C@]3(C[C@H]2O1)OC(CCCCCC)(CCCCCC)OC3=O | 0.5 µM | 0.8 µM | – | – |
| CCCCCCCC[C@H]1O[C@H]2[C@H](OC(=O)/C=C/c3ccc(O)c(O)c3)C[C@]3(C[C@H]2O1)O[C@@H](CCCCCCCC)OC3=O | 0.3 µM | 0.8 µM | – | – |
| CCCCCCCC1(CCCCCCC)O[C@H]2[C@H](OC(=O)/C=C/c3ccc(O)c(O)c3)C[C@]3(C[C@H]2O1)OC(CCCCCCC)(CCCCCCC)OC3=O | 0.4 µM | 0.9 µM | – | – |
| CCC1(CC)OC(=O)[C@@]2(C[C@@H](O)[C@@H](O)[C@H](OC(=O)/C=C/c3ccc(O)c(O)c3)C2)O1 | 71.1 µM | 128 µM | – | – |
| CCCCCCCCC1(CCCCCCCC)OC(=O)[C@@]2(C[C@@H](O)[C@@H](O)[C@H](OC(=O)/C=C/c3ccc(O)c(O)c3)C2)O1 | 3 µM | 5.1 µM | – | – |
| CCC1(CC)O[C@H]2[C@H](OC(=O)/C=C/c3ccc(O)c(O)c3)C[C@]3(C[C@H]2O1)OC(CC)(CC)OC3=O | 26.5 µM | 44.9 µM | – | – |
| CCCCC1(CCCC)OC(=O)[C@@]2(C[C@@H](O)[C@@H](O)[C@H](OC(=O)/C=C/c3ccc(O)c(O)c3)C2)O1 | 3.4 µM | 14.4 µM | – | – |
| OC[C@H]1NC[C@H](O)[C@@H](O)[C@@H]1O [DUVOGLUSTAT HYDROCHLORIDE] | 1.8 µM | 2.4 µM | – | – |
| CC1(C)OC2Cc3c(O)cc(O)cc3O[C@@H]2c2cc(O)c(O)cc21 (some centres undefined) | 18.5 µM | 29.6 µM | – | – |
| CCCCCCCC[C@@H]1O[C@H]2[C@H](OC(=O)/C=C/c3ccc(O)c(O)c3)C[C@]3(C[C@H]2O1)O[C@H](CCCCCCCC)OC3=O | 0.8 µM | 1.8 µM | – | – |
